Columns and labels:
BaF3 (EGFR-A763insFQEA) = BaF3 (EGFR-A763insFQEA) (Homo sapiens, UniProt P00533, INS763FQEA, cells depend on it); test: Test 3: BaF3 (EGFR-A763insFQEA) cell proliferation test; format: cell-based; conditions: 72 hours, Cell Titer-Glo, read-out: Test 3 - IC50
Protocol: Test 3: BaF3 (EGFR-A763insFOEA) Cell Proliferation Test
BaF3 (EGFR-A763insFQEA) was cultured in RPMI1640 medium containing 10% fetal bovine serum and 2 mM glutamine. The cells were grown at 37° C. in a humidified incubator with 5% CO2.
(§1) The number of viable cells in the culture was measured according to the protocol described in Promega's Cell Titer-Glo Luminescent cell Viability Assay (Promega catalog number #G7570). 90 μl of cells (3,000 cells/well) were cultured in growth medium in a Corning black transparent bottom 96-well plate, and cultured in a 5% CO2 humidified incubator at 37° C. overnight. The compound serially diluted in 100% DMSO was added to the cells using a pipette, and the cells were incubated for another 72 hours. 100 μl of the mixed Cell Titer-Glo reagent was added to the cells in the 96-well culture plate to lyse the cells and mix gently. Subsequently, the […] was detected on the Envision microplate detector to obtain the data of each compound. Finally, the data was input into a suitable software package (such as Prism) for curve fitting analysis.

BaF3 (EGFR-N771insH) = BaF3 (EGFR-N771insH) (Homo sapiens, UniProt P00533, INS771H, cells depend on it); test: Test 5: BaF3 (EGFR-N771insH) cell proliferation test; format: cell-based; conditions: 72 hours, Cell Titer-Glo, read-out: Test 5 - IC50
Protocol: Test 5: BaF3 (EGFR-N771insH) Cell Proliferation Test
BaF3 (EGFR-N771insH) was cultured in RPMI1640 medium containing 10% fetal bovine serum and 2 mM glutamine. The cells were grown at 37° C. in a humidified incubator with 5% CO2.
as §1

BaF3 (EGFR-D770insNPG) = BaF3 (EGFR-D770insNPG) (Homo sapiens, UniProt P00533, INS772GNP, cells depend on it); test: Test 6: BaF3 (EGFR-D770insNPG) cell proliferation test; format: cell-based; conditions: 72 hours, Cell Titer-Glo, read-out: Test 6 - IC50
Protocol: Test 6: BaF3 (EGFR-D770insNPG) Cell Proliferation Test
BaF3 (EGFR-D770insNPG) was cultured in RPMI1640 medium containing 10% fetal bovine serum and 2 mM glutamine. The cells were grown at 37° C. in a humidified incubator with 5% CO2.
as §1

BaF3 (EGFR-S768I) = BaF3 (EGFR-S768I) (Homo sapiens, UniProt P00533, S768I, cells depend on it); test: Test 7: BaF3 (EGFR-S768I) cell proliferation test; format: cell-based; conditions: 72 hours, Cell Titer-Glo, read-out: Test 7 - IC50
Protocol: Test 7: BaF3 (EGFR-S768I) Cell Proliferation Test
BaF3 (EGFR-S768I) was cultured in RPMI1640 medium containing 10% fetal bovine serum and 2 mM glutamine. The cells were grown at 37° C. in a humidified incubator with 5% CO2.
as §1

BaF3 (EGFR-L861Q) = BaF3 (EGFR-L861Q) (Homo sapiens, UniProt P00533, L861Q, cells depend on it); test: Test 8: BaF3 (EGFR-L861Q) cell proliferation test; format: cell-based; conditions: 72 hours, Cell Titer-Glo, read-out: Test 8 - IC50
Protocol: Test 8: BaF3 (EGFR-L8610) Cell Proliferation Test
BaF3 (EGFR-L861Q) was cultured in RPMI1640 medium containing 10% fetal bovine serum and 2 mM glutamine. The cells were grown at 37° C. in a humidified incubator with 5% CO2.
as §1

BaF3 (HER2-A775insYVMA) = BaF3 (HER2-A775insYVMA) (Homo sapiens, UniProt P04626, DUP772-775, cells depend on it); test: Test 9: BaF3 (HER2-A775insYVMA) cell proliferation test; format: cell-based; conditions: 72 hours, Cell Titer-Glo, read-out: Test 9 - IC50
Protocol: Test 9: BaF3 (HER2-A775insYVMA) Cell Proliferation Test
BaF3 (HER2-A775insYVMA) was cultured in RPMI1640 medium containing 10% fetal bovine serum and 2 mM glutamine. The cells were grown at 37° C. in a humidified incubator with 5% CO2.
as §1

BaF3 (HER2-P780insGSP) = BaF3 (HER2-P780insGSP) (Homo sapiens, UniProt P04626, DUP778-780, cells depend on it); test: Test 10: BaF3 (HER2-P780insGSP) cell proliferation test; format: cell-based; conditions: 72 hours, Cell Titer-Glo, read-out: Test 10 - IC50
Protocol: Test 10: BaF3 (HER2-P780insGSP) Cell Proliferation Test
BaF3 (HER2-P780insGSP) was cultured in RPMI1640 medium containing 10% fetal bovine serum and 2 mM glutamine. The cells were grown at 37° C. in a humidified incubator with 5% CO2.
as §1

BaF3 (HER2-G776insVC) = BaF3 (HER2-G776insVC) (Homo sapiens, UniProt P04626, cells depend on it, form not given); test: Test 11: BaF3 (HER2-G776insVC) cell proliferation test; format: cell-based; conditions: 72 hours, Cell Titer-Glo, read-out: Test 11 - IC50
Protocol: Test 11: BaF3 (HER2-G776insVC) Cell Proliferation Test
The engineered cell line BaF3 (HER2-G776insVC) was constructed by the inventor himself (for the method of cell line construction, see Jingrui Jiang et al., Cancer Res. 2005 Oct. 1; 65 (19): 8964-74; Jacqulyne P. Robichaux et al., Nat Med. 2018 May; 24 (5): 638-646). BaF3 (HER2-G776insVC) was cultured in RPMI1640 medium containing 10% fetal bovine serum and 2 mM glutamine. The cells were grown at 37° C. in a humidified incubator with 5% CO2.
as §1

HER4 kinase = biological target: T1, HER4 kinase (Homo sapiens, UniProt Q15303); test: Test 12: HER4 kinase screening test; format: binding; conditions: for inhibition at 1 µM: compound concentration 1 μM, read-out: 1 μM Inhibition rate (%); for inhibition at 10 µM: compound concentration 10 μM, read-out: 10 μM Inhibition rate (%)
T1 construct: made in house
Protocol: Test 12: HER4 Kinase Screening Test
Most kinase activity tests were carried out by T7 phage expressing kinase expressed in E. coli system. After E. coli grew to the logarithmic phase, E. coli was infected with T7 bacteriophage (moi=0.4) and cultured with shaking at 32° C. until lysis (90-150 minutes). The lysate was filtered with a centrifuge (6,000 g) and filtration membrane (0.2 μm) to remove cell debris. Other individual kinases to be tested were expressed by HEK-293 cells and labeled with DNA for qPCR detection.
Next, the ligand magnetic beads were blocked with excess biotin and washed with blocking buffer (SeaBlock (Pierce), 1% BSA, 0.05% Tween-20, 1 mm DTT) to remove unbound ligand and reduce non-specific binding of phages. […] 100% DMSO was used to prepare the test compound at a concentration of 40×, which was directly diluted into the reaction system. All reactions were carried out on a polypropylene 384-well plate, and the final volume of the reaction system was 0.02 ml.

Chain of BaF3 (EGFR-D770insNPG) (P00533 with tags, fused parts or gaps INS772GNP): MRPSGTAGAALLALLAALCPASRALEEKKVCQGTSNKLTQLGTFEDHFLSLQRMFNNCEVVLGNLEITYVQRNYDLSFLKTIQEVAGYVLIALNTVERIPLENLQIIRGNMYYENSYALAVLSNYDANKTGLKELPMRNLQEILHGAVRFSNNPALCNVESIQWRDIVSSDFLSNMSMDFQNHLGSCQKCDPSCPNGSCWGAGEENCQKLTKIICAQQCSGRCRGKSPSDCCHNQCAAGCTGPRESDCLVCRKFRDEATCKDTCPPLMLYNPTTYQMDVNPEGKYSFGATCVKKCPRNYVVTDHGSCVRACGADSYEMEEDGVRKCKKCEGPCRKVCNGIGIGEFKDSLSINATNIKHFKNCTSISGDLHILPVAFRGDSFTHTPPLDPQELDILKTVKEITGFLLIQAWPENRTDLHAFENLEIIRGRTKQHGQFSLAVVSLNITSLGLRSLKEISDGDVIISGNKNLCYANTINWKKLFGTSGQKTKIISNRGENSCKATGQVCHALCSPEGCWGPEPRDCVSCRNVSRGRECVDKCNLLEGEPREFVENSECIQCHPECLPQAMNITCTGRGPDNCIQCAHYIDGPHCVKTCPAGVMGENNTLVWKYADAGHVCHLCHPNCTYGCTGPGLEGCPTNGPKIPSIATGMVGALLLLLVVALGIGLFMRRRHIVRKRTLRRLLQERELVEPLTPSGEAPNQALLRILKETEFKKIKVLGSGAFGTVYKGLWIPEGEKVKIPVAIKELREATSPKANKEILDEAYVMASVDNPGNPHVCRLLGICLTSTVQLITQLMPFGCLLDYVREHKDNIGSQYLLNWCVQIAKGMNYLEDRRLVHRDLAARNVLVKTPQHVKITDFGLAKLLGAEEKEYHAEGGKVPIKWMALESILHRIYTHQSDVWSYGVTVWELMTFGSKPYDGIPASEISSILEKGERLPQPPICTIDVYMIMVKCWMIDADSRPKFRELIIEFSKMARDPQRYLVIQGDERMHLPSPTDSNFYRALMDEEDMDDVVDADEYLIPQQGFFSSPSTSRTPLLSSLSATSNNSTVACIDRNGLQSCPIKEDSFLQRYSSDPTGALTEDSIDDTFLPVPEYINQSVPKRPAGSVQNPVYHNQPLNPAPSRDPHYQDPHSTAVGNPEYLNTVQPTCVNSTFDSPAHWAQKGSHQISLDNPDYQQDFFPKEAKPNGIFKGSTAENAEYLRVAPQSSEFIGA
Chain of BaF3 (HER2-P780insGSP) (P04626 with tags, fused parts or gaps DUP778-780): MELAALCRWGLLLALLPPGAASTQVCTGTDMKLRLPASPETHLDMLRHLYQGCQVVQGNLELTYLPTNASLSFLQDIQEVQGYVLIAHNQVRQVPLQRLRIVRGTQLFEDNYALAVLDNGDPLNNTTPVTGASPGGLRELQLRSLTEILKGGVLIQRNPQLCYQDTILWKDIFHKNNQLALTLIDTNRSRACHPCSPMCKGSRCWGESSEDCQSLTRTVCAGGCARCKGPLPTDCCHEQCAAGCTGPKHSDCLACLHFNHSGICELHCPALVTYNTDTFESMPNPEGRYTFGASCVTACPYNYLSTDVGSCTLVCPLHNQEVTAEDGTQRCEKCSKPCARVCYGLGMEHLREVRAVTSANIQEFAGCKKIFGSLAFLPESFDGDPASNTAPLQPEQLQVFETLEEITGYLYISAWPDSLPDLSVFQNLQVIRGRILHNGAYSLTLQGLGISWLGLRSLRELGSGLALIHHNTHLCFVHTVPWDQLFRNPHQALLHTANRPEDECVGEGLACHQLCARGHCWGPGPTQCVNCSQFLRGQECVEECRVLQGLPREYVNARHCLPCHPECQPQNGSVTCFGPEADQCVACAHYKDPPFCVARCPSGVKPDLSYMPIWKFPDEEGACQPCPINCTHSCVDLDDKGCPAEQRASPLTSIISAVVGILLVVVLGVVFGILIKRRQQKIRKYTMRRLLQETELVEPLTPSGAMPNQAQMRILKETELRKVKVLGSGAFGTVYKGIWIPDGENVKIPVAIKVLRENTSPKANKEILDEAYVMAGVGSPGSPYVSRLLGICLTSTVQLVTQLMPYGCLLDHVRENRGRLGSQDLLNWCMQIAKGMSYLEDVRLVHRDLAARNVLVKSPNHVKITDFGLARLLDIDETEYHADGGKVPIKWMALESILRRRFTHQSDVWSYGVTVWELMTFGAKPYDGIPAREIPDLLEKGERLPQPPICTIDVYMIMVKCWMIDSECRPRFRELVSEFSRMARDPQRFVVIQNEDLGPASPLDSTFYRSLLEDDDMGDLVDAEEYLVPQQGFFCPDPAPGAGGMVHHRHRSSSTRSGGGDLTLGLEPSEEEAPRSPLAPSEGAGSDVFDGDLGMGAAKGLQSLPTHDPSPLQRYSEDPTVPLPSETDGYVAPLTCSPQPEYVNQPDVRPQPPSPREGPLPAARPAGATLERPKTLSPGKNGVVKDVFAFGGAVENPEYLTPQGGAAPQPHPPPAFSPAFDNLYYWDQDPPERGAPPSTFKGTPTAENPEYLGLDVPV
Chain of BaF3 (EGFR-N771insH) (P00533 with tags, fused parts or gaps INS771H): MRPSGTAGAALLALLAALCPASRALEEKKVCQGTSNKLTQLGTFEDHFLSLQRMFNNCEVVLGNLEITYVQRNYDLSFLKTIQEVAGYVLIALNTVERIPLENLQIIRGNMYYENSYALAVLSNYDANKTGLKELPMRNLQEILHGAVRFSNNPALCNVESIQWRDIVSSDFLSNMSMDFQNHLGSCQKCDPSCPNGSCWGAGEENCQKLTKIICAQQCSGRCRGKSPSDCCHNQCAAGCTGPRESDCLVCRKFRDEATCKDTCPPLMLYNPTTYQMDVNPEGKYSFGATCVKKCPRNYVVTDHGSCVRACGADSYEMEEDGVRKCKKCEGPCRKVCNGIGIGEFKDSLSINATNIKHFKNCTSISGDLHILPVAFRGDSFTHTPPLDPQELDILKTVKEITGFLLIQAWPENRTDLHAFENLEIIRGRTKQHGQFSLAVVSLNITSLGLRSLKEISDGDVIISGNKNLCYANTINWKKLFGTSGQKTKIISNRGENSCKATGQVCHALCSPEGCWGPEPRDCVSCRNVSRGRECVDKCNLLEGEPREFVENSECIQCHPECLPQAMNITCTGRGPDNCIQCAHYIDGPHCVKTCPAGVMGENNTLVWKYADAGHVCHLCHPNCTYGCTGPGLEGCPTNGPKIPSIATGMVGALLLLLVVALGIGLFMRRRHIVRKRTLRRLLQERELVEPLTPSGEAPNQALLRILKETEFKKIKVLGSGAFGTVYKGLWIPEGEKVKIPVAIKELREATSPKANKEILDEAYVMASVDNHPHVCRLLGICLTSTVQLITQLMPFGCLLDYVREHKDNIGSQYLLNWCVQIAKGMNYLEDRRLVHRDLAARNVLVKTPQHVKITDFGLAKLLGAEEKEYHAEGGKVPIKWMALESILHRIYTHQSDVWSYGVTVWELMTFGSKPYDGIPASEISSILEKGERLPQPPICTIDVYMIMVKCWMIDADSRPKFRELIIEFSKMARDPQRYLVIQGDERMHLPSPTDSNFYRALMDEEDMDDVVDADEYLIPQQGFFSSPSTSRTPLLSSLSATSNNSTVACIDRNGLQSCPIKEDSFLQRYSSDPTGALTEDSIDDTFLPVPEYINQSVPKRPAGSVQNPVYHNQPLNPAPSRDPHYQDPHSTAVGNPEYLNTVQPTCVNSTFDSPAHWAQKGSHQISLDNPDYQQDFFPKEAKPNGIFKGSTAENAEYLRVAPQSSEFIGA
Chain of BaF3 (HER2-G776insVC) (P04626 with tags, fused parts or gaps DELINS776-776VC): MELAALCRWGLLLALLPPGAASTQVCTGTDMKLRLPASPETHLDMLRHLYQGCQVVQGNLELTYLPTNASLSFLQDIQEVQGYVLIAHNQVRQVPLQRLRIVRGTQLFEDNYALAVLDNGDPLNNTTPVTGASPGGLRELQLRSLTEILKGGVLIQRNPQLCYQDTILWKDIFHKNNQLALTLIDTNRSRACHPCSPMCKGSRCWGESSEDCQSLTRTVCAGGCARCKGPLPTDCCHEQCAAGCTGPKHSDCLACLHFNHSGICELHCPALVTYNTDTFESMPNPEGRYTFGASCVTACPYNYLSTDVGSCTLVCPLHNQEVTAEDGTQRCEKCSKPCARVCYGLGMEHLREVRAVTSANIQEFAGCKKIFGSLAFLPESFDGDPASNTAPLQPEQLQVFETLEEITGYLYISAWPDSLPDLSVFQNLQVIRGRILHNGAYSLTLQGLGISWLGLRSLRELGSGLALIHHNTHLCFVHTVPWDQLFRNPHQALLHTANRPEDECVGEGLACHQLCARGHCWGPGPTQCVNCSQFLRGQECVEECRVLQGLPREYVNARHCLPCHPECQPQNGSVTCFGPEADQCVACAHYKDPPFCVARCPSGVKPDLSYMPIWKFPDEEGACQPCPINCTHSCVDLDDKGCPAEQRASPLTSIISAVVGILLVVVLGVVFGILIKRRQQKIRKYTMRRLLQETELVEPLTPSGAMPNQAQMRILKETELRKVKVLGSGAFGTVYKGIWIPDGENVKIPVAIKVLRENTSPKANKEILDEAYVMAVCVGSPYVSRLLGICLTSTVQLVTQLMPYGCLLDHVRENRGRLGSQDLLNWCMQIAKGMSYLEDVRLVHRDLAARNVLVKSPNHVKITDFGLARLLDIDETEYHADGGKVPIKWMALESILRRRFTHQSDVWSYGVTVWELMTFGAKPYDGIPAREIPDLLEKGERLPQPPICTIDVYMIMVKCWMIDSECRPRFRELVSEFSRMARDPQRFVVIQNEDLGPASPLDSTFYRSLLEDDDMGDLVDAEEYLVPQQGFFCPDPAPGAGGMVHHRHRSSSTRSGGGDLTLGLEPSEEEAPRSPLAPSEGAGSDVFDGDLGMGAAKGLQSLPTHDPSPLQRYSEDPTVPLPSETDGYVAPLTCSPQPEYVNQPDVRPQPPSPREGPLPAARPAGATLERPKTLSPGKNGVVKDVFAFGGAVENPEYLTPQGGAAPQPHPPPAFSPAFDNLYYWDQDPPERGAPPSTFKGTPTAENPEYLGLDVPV

GI50 (BaF3 (EGFR-A763insFQEA)) | GI50 (BaF3 (EGFR-N771insH)) | GI50 (BaF3 (EGFR-D770insNPG)) | GI50 (BaF3 (EGFR-S768I)) | GI50 (BaF3 (EGFR-L861Q)) | GI50 (BaF3 (HER2-A775insYVMA)) | GI50 (BaF3 (HER2-P780insGSP)) | GI50 (BaF3 (HER2-G776insVC)) | inhibition at 1 µM (HER4 kinase) | inhibition at 10 µM (HER4 kinase) | Structure (SMILES)
9.45 nM | 9.19 nM | 10.2 nM | 38.1 nM | 22.5 nM | 14.2 nM | 8.76 nM | 1.07 nM | > 95% | > 95% | C=CC(=O)Nc1cc(Nc2ncnc(-c3cn(C)c4ccc(F)cc34)n2)c(OC)cc1N(C)CCN(C)C [Example 11]
7.6 nM | 9.21 nM | 10 nM | 8.91 nM | 4.58 nM | 12.4 nM | 6.92 nM | 1.95 nM | > 98% | > 98% | C=CC(=O)Nc1cc(Nc2ncnc(-c3cn(C)c4ccc(F)cc34)n2)c(OC(F)F)cc1N(C)CCN(C)C [Example 14, N-(4-(difluoromethoxy)-2-((2-(dimethylamino)ethyl)(methyl)amino)-5-((4-(5-fluoro-1-methyl-1H-indol-3-yl)-1,3,5-triazin-2-yl)amino)phenyl)acrylamide]
14 nM | 7.66 nM | 8.87 nM | 7.41 nM | 3.87 nM | 10.8 nM | 6.58 nM | 1.83 nM | > 98% | > 98% | C=CC(=O)Nc1cc(Nc2ncnc(-c3cn(C)c4ccc(F)cc34)n2)c(OCC(F)(F)F)cc1N(C)CCN(C)C [Example 15, N-(2-((2-(dimethylamino)ethyl)(methyl)amino)-5-((4-(5-fluoro-1-methyl-1H-indol-3-yl)-1,3,5-triazin-2-yl)amino)-4-(2,2,2-trifluoroethoxy)phenyl)acrylamide]

Source: US12258344B2, “Azaaromatic amide derivatives for the treatment of cancer” (SHENZHEN FORWARD PHARMACEUTICALS CO., LTD., priority 2019, dated 2025)
